According to patent US20230398101A1, “Co-agents as Therapy Against Anaerobic Pathogens” (priority 2022, published 2023):
Read-outs that look alike come from different tables or passages of the source.

Columns and labels:
[1] = test system: Bifidobacterium animalis; experiment: Anaerobic agar-dilution AST (MIC, checkerboard FIC); format: cell-based
[2] = test system: Peptostreptococcus anaerobius; experiment: as above; format: cell-based; conditions: Peptostreptococcus anaerobious 807256
[3] = test system: Bacteroides fragilis; experiment: as above; format: cell-based; conditions: for MIC vs clinical breakpoint (susceptibility): anaerobic (Table 17)
[4] = test system: Bacteroides ovatus; experiment: as above; format: cell-based
[5] = test system: Bacteroides thetaiotaomicron; experiment: microbe, parasite or virus in culture; format: cell-based; conditions: for MIC: anaerobic
[6] = test system: Phocaeicola vulgatus; experiment: Anaerobic agar-dilution AST (MIC, checkerboard FIC); format: cell-based; conditions: for MIC vs clinical breakpoint (susceptibility): anaerobic (Table 17)
[7] = test system: Parabacteroides distasonis; experiment: as above; format: cell-based
[8] = test system: Prevotella intermedia; experiment: as above; format: cell-based
[9] = test system: Porphyromonas gingivalis; experiment: as above; format: cell-based; conditions: ATCC33277
[10] = test system: Aggretibacter actinomycetemcomitans; experiment: as above; format: cell-based; conditions: strain D751, anaerobic
[11] = test system: Staphylococcus aureus; experiment: Aerobic agar-dilution AST of facultative anaerobes (MIC, checkerboard FIC); format: cell-based; conditions: Staphylococcus aureus, read-out: MIC
[12] = test system: Pseudomonas aeruginosa; experiment: as above; format: cell-based
[13] = test system: Lactobacillus delbrueckii; experiment: AST (MIC) of beneficial or mutualistic facultative anaerobic bacteria; format: cell-based
[14] = test system: Lactobacillus gasseri; experiment: as above; format: cell-based
[15] = test system: Lactobacillus paracasei; experiment: as above; format: cell-based; conditions: Lacticaseibacillus paracasei
[16] = test system: Lactobacillus plantarum; experiment: as above; format: cell-based; conditions: Lactiplantibacillus plantarum
[17] = test system: Leuconostoc mesenteroides; experiment: as above; format: cell-based
[18] = test system: Pediococcus acidilactici; experiment: as above; format: cell-based
[19] = test system: Pediococcus pentosaceus; experiment: as above; format: cell-based
[20] = test system: Enterococcus faecalis; experiment: Aerobic agar-dilution AST of facultative anaerobes (MIC, checkerboard FIC); format: cell-based
[21] = test system: Enterococcus faecium; experiment: Aerobic agar-dilution AST of facultative anaerobes (MIC, checkerboard FIC), also at pH 5, 7, 8; format: cell-based; conditions: Enterococcus faecium 51559
[22] = test system: Burkholderia thailandensis; experiment: microbe, parasite or virus in culture; format: cell-based; conditions: ATCC700388, pH 7
[23] = test system: Escherichia coli; experiment: Post-antibiotic effect (PAE) in vitro, viable counts; conditions: Escherichia coli ATCC 25922

C[C@@H]1O[C@@H]1P(=O)(O)O [F, fosfomycin sodium]
MIC ([1]; Bifidobacterium animalis): 128 µg/mL
MIC vs clinical breakpoint (susceptibility) ([1]; Bifidobacterium animalis JLP-002, anaerobic (Table 17)): −
MIC ([1]; Bifidobacterium animalis TBC0002, anaerobic): 32 µg/mL
MIC ([1]; Bifidobacterium animalis, Bifidobacterium animalis TBC0002, anaerobic, read-out: MIC): 64 µg/mL
susceptibility ([1]; Bifidobacterium, anaerobic): no susceptibility
MIC ([1]; strain TBC0002, anaerobic): 128 µg/mL
MIC vs clinical breakpoint (susceptibility) ([2]; anaerobic (Table 17)): +
MIC ([2]; Peptostreptococcus anaerobius, anaerobic): 16 µg/mL
MIC ([3]; ATCC25285, Bacteroides fragilis ATCC 25285, anaerobic, read-out: MIC): 64 µg/mL
MIC vs clinical breakpoint (susceptibility) ([3]; Bacteroides fragilis 638R): −
MIC vs clinical breakpoint (susceptibility) ([3]; Bacteroides fragilis ATCC 23745): −
MIC vs clinical breakpoint (susceptibility) ([3]; Bacteroides fragilis ATCC 25285): −
MIC vs clinical breakpoint (susceptibility) ([3]; Bacteroides fragilis CLA267): −
MIC vs clinical breakpoint (susceptibility) ([3]; Bacteroides fragilis O16M): −
MIC ([3]; Bacteroides fragilis, ATCC23745, Bacteroides fragilis ATCC 23745, anaerobic): > 128 µg/mL
MIC ([3]; Bacteroides fragilis, ATCC23745, strain ATCC 23745, anaerobic): > 128 µg/mL
MIC ([3]; Bacteroides fragilis, ATCC25285, Bacteroides fragilis ATCC 25285, anaerobic): > 128 µg/mL
MIC ([3]; Bacteroides fragilis, ATCC25285, strain ATCC 25285, anaerobic): > 128 µg/mL
MIC ([3]; Bacteroides fragilis, Bacteroides fragilis 016M, anaerobic): > 128 µg/mL
MIC ([3]; Bacteroides fragilis, Bacteroides fragilis 638R, anaerobic): > 128 µg/mL
MIC ([3]; Bacteroides fragilis, Bacteroides fragilis CLA 267, anaerobic): > 128 µg/mL
MIC ([3]; Bacteroides fragilis, strain 638R, anaerobic): > 128 µg/mL
MIC ([3]; Bacteroides fragilis, strain CLA267, anaerobic): > 128 µg/mL
MIC ([3]; Bacteroides fragilis, strain O16M (016M), anaerobic): > 128 µg/mL
MIC ([3]; strain ATCC 25285, anaerobic): 128 µg/mL
MIC ([3]; strain CLA267, anaerobic): 128 µg/mL
MIC ([4]; Bacteroides ovatus ATCC 8483, anaerobic): >128 µg/mL
MIC vs clinical breakpoint (susceptibility) ([4]; Bacteroides ovatus ATCC 8483, anaerobic (Table 17)): −
MIC ([4]; Bacteroides ovatus, ATCC8483): > 128 µg/mL
MIC vs clinical breakpoint (susceptibility) ([5]; Bacteroides thetaiotaomicron VPI5482, anaerobic (Table 17)): −
MIC ([5]; Bacteroides thetaiotaomicron VPI 5842): >128 µg/mL
MIC ([5]; Bacteroides thetaiotaomicron, Bacteroides thetaiotaomicron VPI 5842): 128 µg/mL
MIC ([5]; Bacteroides thetaiotaomicron, strain VPI5482 (Tables 1, 2) / VPI 5842 (other tables)): > 128 µg/mL
MIC vs clinical breakpoint (susceptibility) ([6]; Phocaeicola vulgatus ATCC 8482): −
MIC vs clinical breakpoint (susceptibility) ([6]; Phocaeicola vulgatus ATCC 29327): −
MIC ([6]; Phocaeicola vulgatus, ATCC8482, strain ATCC 8482, anaerobic): > 128 µg/mL
MIC ([6]; Phocaeicola vulgatus, ATCC29327, Phacoeicola vulgatus ATCC 29327, anaerobic): 128 µg/mL
MIC ([6]; Phocaeicola vulgatus, ATCC29327, strain ATCC 29327, anaerobic): > 128 µg/mL
MIC ([6]; Phocaeicola vulgatus, ATCC29327, strain ATCC 29327, anaerobic, read-out: MIC): 64 µg/mL
MIC ([6]; Phocaeicola vulgatus, Phacoeicola vulgatus TCC 8482, anaerobic): > 128 µg/mL
MIC ([6]; strain ATCC 8482, anaerobic): 128 µg/mL
MIC ([7]; Parabacteroides distasonis): > 128 µg/mL
MIC ([7]; Parabacteroides distasonis CLA 348, anaerobic): >128 µg/mL
MIC ([8]; Prevotella intermedia, Prevotella intermedia 8071621, anaerobic): > 128 µg/mL
MIC ([8]; Prevotella intermedia, strain 807114, anaerobic): > 128 µg/mL
MIC ([8]; Prevotella intermedia, strain 8071621, anaerobic): > 128 µg/mL
MIC ([8]; Prevotella intermedia, strain 8071621, anaerobic, read-out: MIC): 64 µg/mL
MIC ([8]; strain 8071621, anaerobic): 128 µg/mL
MIC [9]: > 128 µg/mL
MIC [10]: 16 µg/mL
MIC ([11]; ATCC33591, Staphylococcus aureus ATCC 33591 (Table 15)): 4 µg/mL
MIC ([11]; Staphylococcus aureus 829025): 8 µg/mL
MIC ([11]; Staphylococcus aureus 894946): 8 µg/mL
MIC ([11]; Staphylococcus aureus 920576): 8 µg/mL
MIC ([11]; Staphylococcus aureus 920962): 8 µg/mL
MIC ([11]; Staphylococcus aureus 927596): 8 µg/mL
MIC ([11]; Staphylococcus aureus 952566 (Table 15)): > 16 µg/mL
MIC ([11]; Staphylococcus aureus 952566 (Tables 14A/14B)): 8 µg/mL
MIC ([11]; Staphylococcus aureus 953041 (Table 15)): 4 µg/mL
MIC ([11]; Staphylococcus aureus 956270): 8 µg/mL
MIC ([11]; Staphylococcus aureus 956362): 8 µg/mL
MIC ([11]; Staphylococcus aureus 981550 (Table 15)): 16 µg/mL
MIC ([11]; Staphylococcus aureus 981550 (Tables 14A/14B)): 8 µg/mL
MIC ([11]; Staphylococcus aureus 994946): 2 µg/mL
MIC ([11]; Staphylococcus aureus 1022425): 16 µg/mL
MIC ([11]; Staphylococcus aureus 1045190): 8 µg/mL
MIC ([11]; strain (MR) 829025, aerobic): 4 µg/mL
MIC ([11]; strain (MR) 884649, aerobic): 8 µg/mL
MIC ([11]; strain (MR) 903887, aerobic): 8 µg/mL
MIC ([11]; strain (MR) 918019, aerobic): 4 µg/mL
MIC ([11]; strain (MR) 920516, aerobic): 4 µg/mL
MIC ([11]; strain (MR) 927596, aerobic): 8 µg/mL
MIC ([11]; strain (MR) 956270, aerobic): 4 µg/mL
MIC ([11]; strain (MR) 956362, aerobic): 8 µg/mL
MIC ([11]; strain (MR) 967287, aerobic): 8 µg/mL
MIC ([11]; strain (MR) 974980, aerobic): 8 µg/mL
MIC ([11]; strain (MR) 979234, aerobic): 8 µg/mL
MIC ([11]; strain (MR) 981550, aerobic): 4 µg/mL
MIC ([11]; strain (MR) 1022425, aerobic): 8 µg/mL
MIC ([11]; strain (MR) 1045190, aerobic): 4 µg/mL
MIC ([12]; Pseudomonas aeruginosa): 128 µg/mL
MIC ([12]; Pseudomonas aeruginosa 945748): 128 µg/mL
MIC ([12]; Pseudomonas aeruginosa, pH 5, Pseudomonas aeruginosa 27853, pH 5, read-out: MIC): 32000 µg/mL
MIC ([12]; Pseudomonas aeruginosa, pH 5, Pseudomonas aeruginosa 975744, pH 5, read-out: MIC): 32000 µg/mL
MIC ([12]; Pseudomonas aeruginosa, pH 8, Pseudomonas aeruginosa 27853, pH 8, read-out: MIC): 64000 µg/mL
MIC ([12]; Pseudomonas aeruginosa, strain 880238, aerobic, read-out: MIC): 8 µg/mL
MIC ([12]; Pseudomonas aeruginosa, strain 889058, aerobic, read-out: MIC): 64 µg/mL
MIC ([12]; Pseudomonas aeruginosa, strain 906939, aerobic, read-out: MIC): 64 µg/mL
MIC [13]: > 128 µg/mL
MIC [14]: > 128 µg/mL
MIC [15]: > 128 µg/mL
MIC [16]: > 128 µg/mL
MIC [17]: > 128 µg/mL
MIC [18]: > 128 µg/mL
MIC [19]: > 128 µg/mL
MIC ([20]; Enterococcus faecalis): > 128 µg/mL
MIC ([20]; Enterococcus faecalis 108, pH 5, read-out: MIC): 8000 µg/mL
MIC ([20]; Enterococcus faecalis 1086432, pH 7, read-out: MIC): 64000 µg/mL
MIC ([20]; Enterococcus faecalis, ATCC51559): > 128 µg/mL
MIC ([21]; pH 5): 16000 µg/mL
MIC ([21]; pH 8): 64000 µg/mL
MIC [22]: 64000 µg/mL
PAE ([23]; exposure μg/ml: F 1, D/S 0.5/9.5, CAv 4/8, F/D/S 0.125/0.125/2.38, F/D/S/CAv 0.06/0.03/0.6/4/0.25): 0.5 h
PAE ([23]; exposure μg/ml: F 2, D/S 1/19, CAv 4/16, F/D/S 0.25/0.25/4.75, F/D/S/CAv 0.125/0.06/1.19/4/0.5): 0.5 h
PAE ([23]; exposure μg/ml: F 4, D/S 2/38, CAv 4/32, F/D/S 0.5/0.5/9.5, F/D/S/CAv 0.25/0.125/2.38/4/1): 1 h
PAE ([23]; exposure μg/ml: F 8): 1.5 h
